Common to all, as to format: cell-based
For series [1], the system named is human Factor 11 mRNA. Briefly: Antisense inhibition of human Factor 11 in HepG2 cells by microwalk gapmers, lipofectin, 75 nM (Example 3). In short, it runs like this: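 HepG2 cells (10,000/well) were transfected via lipofectin with 75 nM 20-mer MOE gapmers (phosphorothioate, 5-methyl-C) for about 24 h. Factor 11 mRNA was measured by qRT-PCR, normalized to RIBOGREEN total RNA, and given as percent inhibition versus untreated cells.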

Series [2] has as its system human Factor 11 mRNA. Nature of the series: Antisense inhibition of human Factor 11 in HepG2 cells, lipofectin, 75 nM (Example 1). The note with it: 75 nM antisense oligonucleotide, ~24 h, relative to untreated control cells, gapmers targeted to SEQ ID NO: 1. In short, it runs like this:
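HepG2 cells transfected via lipofectin with 75 nM antisense oligonucleotide (5-10-5 MOE gapmers, 20-mers, phosphorothioate, 5-methylcytidines), treated ~24 h. Factor 11 mRNA quantified by real-time PCR, normalised to RIBOGREEN total RNA; percent inhibition versus untreated cells.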

For series [3], the system named is human Factor 11 mRNA. Nature of the series: Dose-dependent inhibition of human Factor 11 in HepG2 cells, electroporation 0.7-20 uM (Example 4). Summed up:
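HepG2 cells electroporated with antisense gapmers at 0.7, 2.2, 6.7 and 20 μM, treated ~16 h. Factor 11 mRNA quantified by qRT-PCR (primer probe set RTS 2966), normalised to RIBOGREEN total RNA; expressed as percent inhibition versus untreated control cells.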

The test system of series [4] is human Factor 11 mRNA. Nature of the series: Dose-dependent inhibition of human Factor 11 in HepG2 cells, lipofectin 9.375-75 nM (Example 4). In short, it runs like this:
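HepG2 cells transfected via lipofectin with antisense oligonucleotide at 9.375, 18.75, 37.5 or 75 nM for about 16 h. Factor 11 mRNA quantified by real-time RT-PCR (primer probe set RTS 2966) and normalized to total RNA (RIBOGREEN). Results expressed as percent inhibition versus untreated cells.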

Series [5] concerns human Factor 11 mRNA. Briefly: Antisense inhibition of human Factor 11 in HepG2 cells, electroporation, 8,000 nM (Example 30). The note with it: electroporation, 8,000 nM antisense oligonucleotide. On the procedure:
These microwalk gapmers were tested in vitro. Cultured HepG2 cells at a density of 20,000 cells per well were transfected using electroporation with 8,000 nM antisense oligonucleotide. After a treatment period of approximately 24 hours, RNA was isolated from the cells and Factor 11 mRNA levels were measured by quantitative real-time PCR. Factor 11 mRNA levels were adjusted according to total RNA content, as measured by RIBOGREEN. Results are presented as percent inhibition of Factor 11, relative to untreated control cells.
The chimeric antisense oligonucleotides in Table 44 were designed as 5-10-5 MOE, 5-8-5 and 6-8-6 MOE gapmers. The first two listed gapmers in Table 44 are the original gapmers (ISIS 416850 and ISIS 416858) from which ISIS 445493-445543 were designed via microwalk, and are designated by an asterisk. The 5-10-5 gapmers are 20 nucleotides in length, wherein the central gap segment is comprised of ten 2′-deoxynucleotides and is flanked on both sides (in the 5′ and 3′ directions) by wings comprising five nucleotides each. The 5-8-5 gapmers are 18 nucleotides in length, wherein the central gap segment is comprised of eight 2′-deoxynucleotides and is flanked on both sides (in the 5′ and 3′ directions) by wings comprising five nucleotides each. The 6-8-6 gapmers are 20 nucleotides in length, wherein the central gap segment is comprised of eight 2′-deoxynucleotides and is flanked on both sides (in the 5′ and 3′ directions) by wings comprising six nucleotides each. For each of the motifs (5-10-5, 5-8-5 and 6-8-6), each nucleotide in the 5′ wing segment and each nucleotide in the 3′ wing segment has a 2′-MOE modification. The internucleoside linkages throughout each gapmer are phosphorothioate (P=S) linkages. All cytidine residues throughout each gapmer are 5-methylcytidines. “Human Target start site” indicates the 5′-most nucleotide to which the gapmer is targeted in the human sequence. “Human Target stop site” indicates the 3′-most nucleotide to which the gapmer is targeted in the human sequence. Each gapmer listed in Table 44 is targeted to SEQ ID NO: 1 (GENBANK Accession No. NM_000128.3). Each gapmer is Table 44 is also fully cross-reactive with the rhesus monkey Factor 11 gene sequence, designated herein as SEQ ID NO: 274 (exons 1-15 GENBANK Accession No. NW_001118167.1). ‘Rhesus monkey start site’ indicates the 5′-most nucleotide to which the gapmer is targeted in the rhesus monkey sequence. ‘Rhesus monkey stop site’ indicates the 3′-most nucleotide to which the gapmer is targeted to the rhesus monkey sequence.

pIC50: −log10 of the molar value. Strand notation (5' to 3'): a small letter for the sugar, then the base; units joined by * are phosphorothioate-linked, units joined directly phosphodiester-linked; [ ] holds rarer units or linkages, { } end groups; capitals alone tell only the bases. e = 2'-O-(2-methoxyethyl) (MOE); [5mC] = 5-methylcytosine; d = 2'-deoxy (DNA)

Results on 15 substances are retold here after US20230263822A1, “MODULATION OF FACTOR 11 EXPRESSION” (Ionis Pharmaceuticals, Inc., priority 2008, published 2023).

As usually defined, the % inhibition is the percentage by which the read-out fell short of the control. Read a high % inhibition as a response far below the control. In the case of “412204 (antisense eT*eT*e[5mC]*eA*eT*dG*dT*d[5mC]*dT*dA*dG*dG*dT*d[5mC]*d[5mC]*eA*e[5mC]*eA*eT*eA) [compound 412204]”, the “% inhibition” value with human Factor 11 mRNA [1] (HepG2, lipofectin, ~24 h, gapmers targeted to nucleobases 656 to 704 of SEQ ID NO: 1) turned out to be 76%; in the series with human Factor 11 mRNA [2], 74%.

On to “412215 (antisense eA*eT*eT*e[5mC]*eT*dT*dT*dG*dG*dG*d[5mC]*d[5mC]*dA*dT*dT*e[5mC]*e[5mC]*eT*eG*eG) [compound 412215]”, for which the “% inhibition” value was 82% in the series on human Factor 11 mRNA [1] (HepG2 cells, lipofectin, gapmers targeted to nucleobases 1062 to 1091 of SEQ ID NO: 1) and 81% in the series with human Factor 11 mRNA [2]. What is called pIC50 is the negative decadic logarithm of the IC50, by convention in mol/L. Low values mean a high IC50, high ones a low IC50. Take “413474 (antisense eA*eG*e[5mC]*eA*eA*d[5mC]*d[5mC]*dG*dG*dG*dA*dT*dG*dA*dT*eG*eA*eG*eT*eG) [compound 413474]”: the pIC50 in the series on human Factor 11 mRNA [3] was 5.16; in the series with human Factor 11 mRNA [4] it was 7.55. The “percent inhibition of Factor 11 at 0.7 μM” value in the series on human Factor 11 mRNA [3] (0.7 μM, relative to untreated control cells) came out at 0%. In addition, in the series with human Factor 11 mRNA [3] (2.2 μM, relative to untreated control cells), the “percent inhibition of Factor 11 at 2.2 μM” value is given as 5%. Moreover, the “percent inhibition of Factor 11 at 6.7 μM” value in the series on human Factor 11 mRNA [3] (6.7 μM, relative to untreated control cells) turned out to be 52%. The “percent inhibition of Factor 11 at 20 μM” value in the series on human Factor 11 mRNA [3] (20 μM, relative to untreated control cells) came out at 81%. Further, the “percent inhibition of Factor 11 at 9.375 nM” value with human Factor 11 mRNA [4] (9.375 nM, relative to untreated control cells) was 29%. The “percent inhibition of Factor 11 at 18.75 nM” value with human Factor 11 mRNA [4] (18.75 nM, relative to untreated control cells) was 44%. For the same substance, the “percent inhibition of Factor 11 at 37.5 nM” value in the series with human Factor 11 mRNA [4] (37.5 nM, relative to untreated control cells) is 57%. The “percent inhibition of Factor 11 at 75 nM” value with human Factor 11 mRNA [4] (75 nM, relative to untreated control cells) was determined as 67%. Besides, the “% inhibition” value with human Factor 11 mRNA [1] (HepG2 cells, lipofectin, gapmers targeted to nucleobases 1018 to 1042 of SEQ ID NO: 1) turned out to be 93%; in the series on human Factor 11 mRNA [2] it was 84%. Turning to “445493 (antisense eA*e[5mC]*eA*eG*eT*eT*dT*d[5mC]*dT*dG*dG*d[5mC]*dA*dG*eG*e[5mC]*e[5mC]*eT*e[5mC]*eG) [compound 445493]”, in the series on human Factor 11 mRNA [5], the “Percent inhibition of human Factor 11 mRNA levels” value came to 69%. Still for that read-out and setting: under “445494 (antisense e[5mC]*eA*e[5mC]*eA*eG*eT*dT*dT*d[5mC]*dT*dG*dG*d[5mC]*dA*eG*eG*e[5mC]*e[5mC]*eT*e[5mC]) [compound 445494]” stands 85%. “445495 (antisense eG*e[5mC]*eA*e[5mC]*eA*eG*dT*dT*dT*d[5mC]*dT*dG*dG*d[5mC]*eA*eG*eG*e[5mC]*e[5mC]*eT) [compound 445495]”: the “Percent inhibition of human Factor 11 mRNA levels” value with human Factor 11 mRNA [5] is 89%. In the case of “445496 (antisense eT*eG*e[5mC]*eA*e[5mC]*eA*dG*dT*dT*dT*d[5mC]*dT*dG*dG*e[5mC]*eA*eG*eG*e[5mC]*e[5mC]) [compound 445496]”, the “Percent inhibition of human Factor 11 mRNA levels” value in the series on human Factor 11 mRNA [5] amounted to 87%. Same read-out and setting: the same measure for “445497 (antisense eG*eT*eG*e[5mC]*eA*e[5mC]*dA*dG*dT*dT*dT*d[5mC]*dT*dG*eG*e[5mC]*eA*eG*eG*e[5mC]) [compound 445497]”: 81%; for “445499 (antisense eT*eG*eG*eT*eG*e[5mC]*dA*d[5mC]*dA*dG*dT*dT*dT*d[5mC]*eT*eG*eG*e[5mC]*eA*eG) [compound 445499]”: 75%; for “445500 (antisense eT*eT*eG*eG*eT*eG*d[5mC]*dA*d[5mC]*dA*dG*dT*dT*dT*e[5mC]*eT*eG*eG*e[5mC]*eA) [compound 445500]”: 81%. “445501 (antisense eA*eT*eT*eG*eG*eT*dG*d[5mC]*dA*d[5mC]*dA*dG*dT*dT*eT*e[5mC]*eT*eG*eG*e[5mC]) [compound 445501]”: the “Percent inhibition of human Factor 11 mRNA levels” value in the series with human Factor 11 mRNA [5] was determined as 83%. Regarding “445502 (antisense e[5mC]*eA*eT*eT*eG*eG*dT*dG*d[5mC]*dA*d[5mC]*dA*dG*dT*eT*eT*e[5mC]*eT*eG*eG) [compound 445502]”, the “Percent inhibition of human Factor 11 mRNA levels” value in the series with human Factor 11 mRNA [5] stood at 83%. On the same count and under the same terms, the same measure for “445506 (antisense eA*e[5mC]*eG*eG*e[5mC]*eA*dT*dT*dG*dG*dT*dG*d[5mC]*dA*e[5mC]*eA*eG*eT*eT*eT) [compound 445506]”: 86%. The same measure, in the same setting: the same measure for “445507 (antisense eG*eA*e[5mC]*eG*eG*e[5mC]*dA*dT*dT*dG*dG*dT*dG*d[5mC]*eA*e[5mC]*eA*eG*eT*eT) [compound 445507]”: 85%; for “445508 (antisense eG*eG*eA*e[5mC]*eG*eG*d[5mC]*dA*dT*dT*dG*dG*dT*dG*e[5mC]*eA*e[5mC]*eA*eG*eT) [compound 445508]”: 81%.
